Measured values reported in patent US7998718B2, “Identification and functional characterization of a novel ribosomal S6 protein kinase” (Ludwig Institute for Cancer Research Ltd., priority 1998, dated 2011).

Legend:
[1] = system: p70β^S6k (p70β-II isoform); assay: Stimulation of S6 kinase activity in transfected CHO-IR cells; type: cell-based, human; conditions: serum-starved CHO-IR cells
Description: (§1) FIG. 5A. CHO-IR cells were transfected with mock (lane 1) or plasmids containing cDNAs of FLAG-tagged p70α-I (lanes 2 and 3) or FLAG-tagged p70β-II (lanes 4 to 7). After serum starvation for 16 hrs, cells were treated with the vehicle (lanes 2 and 4), 10^−7 M insulin for 10 min (lanes 3 and 5), 15% serum for 10 min (lane 6) or 500 nM TPA for 30 min (lane 7). After cell lysis and subsequent immunoprecipitation with anti-FLAG antibodies, immunoprecipitates were subjected to a p70 S6 kinase assay using 40S subunits as substrates. The reaction mixture was separated by SDS-PAGE, transferred onto PVDF membrane. The membrane was analyzed by autoradiography (upper panel) and then immunoblotted with anti-FLAG antibodies (lower panel). A representative of three experiments is shown. ^32P incorporation into S6 was quantified by Molecular Dynamics. PhosphorImager™ and is expressed in arbitrary units (PI units).
(§2) Materials and Methods. HEK293 cells or CHO-IR cells were transfected with plasmids containing p70α^S6k and p70β^S6k sequences using lipofectAMINE under conditions recommended by the manufacturer (Gibco-BRL). Two days later, transfected cells were frozen in liquid nitrogen and stored until lysis. […]
(§3) Results. […] The activation of p70β^S6k (p70β-II isoform) by insulin was analyzed in CHO-IR cells, which stably over expresses the insulin receptor. […]

p70α^S6k (p70α-I) [2] = assay: S6 kinase assay (40S subunits) on immunoprecipitates of transfected HEK293 cells treated with rapamycin or wortmannin; type: cell-based, rat; conditions: 30 min, HEK293 cells in DMEM with 10% FCS
Description: (§4) FIG. 6A-6B. Effects of rapamycin and wortmannin on p70β^S6k and p70α^S6k. Effects of rapamycin and wortmannin on S6 phosphorylation activity of p70α-I or p70β-II. HEK293 cells were transfected with mock cDNA or plasmids containing FLAG-tagged p70β1 or p70β2 isoforms. After 48 h of transfection, cells were treated with vehicle or indicated concentrations of rapamycin or wortmannin for 30 min. After immunoprecipitation with anti-FLAG antibodies, the kinase activity was determined by a p70 S6 kinase assay using 40S subunits as substrates. The proteins of the reaction mixture were separated by SDS-PAGE, transferred onto PVDF membrane and analyzed by autoradiography (FIGS. 6A and 6B, upper panels). Subsequent immunoblotting with anti-FLAG antibody confirmed the expression of p70α-I (FIG. 6A, lower panel) and p70β-II (FIG. 6B, lower panel). A representative of three experiments is shown. ^32P incorporation into S6 was quantified by PhosphorImager and is expressed in arbitrary units (PI units).
Materials and Methods. Restriction enzymes and DNA modification enzymes were obtained from standard commercial sources and used according to manufacturer's recommendations. Oligonucleotides which were used for sequencing of p70β^S6k and various PCR fragments were synthesized by Genosys or Japan Bioservice, Inc. The pcDNA1 and pcDNA3 mammalian expression vectors were from Invitrogen. […]

p70β^S6k (p70β-II) = assay: as above; type: cell-based, human; conditions: 30 min, HEK293 cells in DMEM with 10% FCS
Description: as §4
Materials and Methods. Treatment of transfected cells with rapamycin or wortmannin was performed as follows: 48 h after transfection, the cells were treated with various concentrations of rapamycin or wortmannin for 30 min.
Results. […] Thus, the effects of both inhibitors on p70β^S6k activity were examined. […]

p70α^S6k (p70α-I) [3] = assay: Stimulation of S6 kinase activity in transfected CHO-IR cells; type: cell-based, rat; conditions: 10^-7 M insulin for 10 min, serum-starved CHO-IR cells
Description: as §1, §2, §3

40S ribosomal subunit = assay: In vitro S6 kinase assay of activated kinase variants expressed in HEK293 cells; type: biochemical; conditions: versus wild type p70α^S6k
Description: Materials and Method. Activated variants of p70β^S6k and p70α^S6k were made by site-directed mutagenesis. Oligonucleotide primers, specific to the site to be mutated and complimentary to opposite strands of p70β^S6k and p70α^S6k sequences were generated as recommended by manufacturer (Stratagene). Site directed mutagenesis was carried out using pcDNA3/Glu-tag-p70β^S6k and pcDNA3/Glu-tag-p70α^S6k expression vector/plasmids as templates, according to the recommended protocol (Stratagene). All mutations were verified by DNA sequencing. Expression of mutated forms of both kinases was analyzed by immunobloting with anti-Glu-tag antibodies. The activity of normal and mutated forms of both kinases was measured by in vitro S6 kinase assay. 40S ribosomal subunit was used as a substrate in this reaction.
We have generated an activated form of p70β^S6k by substituting putative phosphorylation site Thr 401 with Aspartic acid (Asp) (“p70β^S6k (T401D)”) as shown in FIG. 10.

p70α^S6k = assay: Stimulation of S6 kinase activity by PDGF in transfected PAE-PDGF-R cells; type: cell-based, rat; conditions: 20 ng/ml PDGF BB for 20 min, serum-starved PAE-PDGF-R cells
Description: (§5) FIG. 5B. Stimulation of the p70α^S6k and p70β^S6k activity towards ribosomal S6 protein by PDGF in PAE-PDGF-R cells. PAE-PDGF-R cells were transfected with EE-tagged p70α^S6k and p70β^S6k plasmids using lipofectAMINE. After 24 hr, transfected cells were serum-starved for 16 hr and stimulated with 20 ng/ml PDGF BB (Calbiochem) for 20 min. Control cells were treated with the vehicle under the same conditions. After immunoprecipitation with anti-EE antibodies, an in vitro kinase reaction was carried out in the presence of 40S subunits, containing the S6 protein. Reaction mixtures were separated by SDS-PAGE and incorporation of ^32P into S6 protein was measured by PhosphoImager.
(§6) Materials and Methods. HEK293 cells or CHO-IR cells were transfected with plasmids containing p70α^S6k and p70β^S6k sequences using lipofectAMINE under conditions recommended by the manufacturer (Gibco-BRL). Two days later, transfected cells were frozen in liquid nitrogen and stored until lysis. After cell extraction, the lysates were subjected to immunoprecipitation and/or immunoblot analysis. If cells were to be stimulated, they were starved in medium without FCS for 16 h and then stimulated with 10^−7 M insulin for 10 min, 15% FCS for 10 min, 500 nM TPA for 30 min or vehicle alone. PAE-PDGF-R cells were transfected with appropriate plasmids using lipofect under conditions recommended by the manufacturer. […]

[4] = system: p70β^S6k (p70β-II isoform); assay: as above; type: cell-based, human; conditions: 20 ng/ml PDGF BB for 20 min, serum-starved PAE-PDGF-R cells
Description: as §5, §6

Question: `CCCCCCCCCCCCCC(=O)O[C@@H]1[C@@H](C)[C@@]2(O)[C@@H](C=C(CO)C[C@]3(O)C(=O)C(C)=C[C@@H]23)[C@@H]2C(C)(C)[C@]12OC(C)=O` [TPA] was tested. Which “stimulation of p70β^S6k phosphorylation of ribosomal protein S6” value ([1]; 500 nM TPA for 30 min) did it give?
Answer: The value was “stimulated”.

Question: `CO[C@H]1C[C@@H]2CC[C@@H](C)[C@@](O)(O2)C(=O)C(=O)N2CCCC[C@H]2C(=O)O[C@H]([C@H](C)C[C@@H]2CC[C@@H](O)[C@H](OC)C2)CC(=O)[C@H](C)/C=C(\C)[C@@H](O)[C@@H](OC)C(=O)[C@H](C)C[C@H](C)/C=C/C=C/C=C/1C` [rapamycin] was tested. Which “inhibition of the p70α^S6k” value (p70α^S6k (p70α-I) [2]; 20 nM rapamycin) did it give?
Answer: Its value is 92%.

Question: What about the “inhibition of p70β^S6k” value (p70β^S6k (p70β-II); 20 nM rapamycin) of the same molecule?
Answer: Its value is 46%.

Question: Which “inhibition of p70α^S6k activity” value (p70α^S6k (p70α-I) [2]; 100 nM wortmannin) does the source give for `COC[C@H]1OC(=O)c2coc3c2[C@@]1(C)C1=C(C3=O)[C@@H]2CCC(=O)[C@@]2(C)C[C@H]1OC(C)=O` [wortmannin] here?
Answer: Its value is 86%.

Question: And the “inhibition of p70β^S6k activity” value (p70β^S6k (p70β-II); 100 nM wortmannin)?
Answer: Its value is 62%.

Question: Which “activation of p70α^S6k activity” value (p70α^S6k (p70α-I) [3]) does the source give for “insulin: hormone used to stimulate CHO-IR cells” here?
Answer: Its value is 3.5 fold.

Question: And the “induction of p70β^S6k activity towards ribosomal S6 protein” value ([1]; 10^-7 M insulin for 10 min)?
Answer: Its value is 2.8 fold.

Question: With “p70α^S6k (T412D): activated version of p70α^S6k made by site-directed mutagenesis” as the molecule, how does the “S6 kinase activation compared with wild type kinase” value (40S ribosomal subunit) read?
Answer: Its value is 18 fold.

B1: PDGF: PDGF BB growth factor purchased from Calbiochem (protein, UniProt P01127 82-190, looked up)
Platelet-derived growth …: SLGSLTIAEPAMIAECKTRTEVFEISRRLIDRTNANFLVWPPCVEVQRCSGCCNNRNVQCRPTQVQLRPVQVRKIEIVRKKPIFKKATVTLEDHLACKCETVAAARPVT
modifications: Platelet-derived growth factor subunit B
notes: PDGF BB growth factor purchased from Calbiochem
Question: What does the source list for B1?
Answer: activation of p70α^S6k (p70α^S6k): 3.4 fold; activation of p70β^S6k [4]: 30 fold
